Several values for one entry are separate records, joined by “and”; a condition that tells them apart may be missing. Equal values may be shown once.
Conditions: 101.33 kPa, Liquid

CCCCCCCCCCCCCCCCCC [octadecane]
viscosity
Conditions | Concentric cylinders viscometry | Cone and plate viscometry
309.68 K | 3.276 mPa·s | –
309.75 K | – | 3.24 mPa·s
309.85 K | – | 3.3 mPa·s
309.95 K | – | 3.22 mPa·s and 3.2 mPa·s
310.04 K | 3.245 mPa·s | –
310.15 K | – | 3.21 mPa·s and 3.28 mPa·s and 3.42 mPa·s
310.25 K | – | 3.18 mPa·s
310.32 K | 3.229 mPa·s | –
310.35 K | – | 3.22 mPa·s and 3.26 mPa·s
310.41 K | 3.218 mPa·s | –
310.55 K | – | 3.18 mPa·s
310.65 K | – | 3.25 mPa·s and 3.14 mPa·s and 3.38 mPa·s
310.75 K | – | 3.17 mPa·s
310.77 K | 3.19 mPa·s | –
310.85 K | – | 3.24 mPa·s
310.95 K | – | 3.15 mPa·s and 3.12 mPa·s
311.04 K | 3.171 mPa·s | –
311.15 K | – | 3.14 mPa·s and 3.22 mPa·s and 3.35 mPa·s
311.16 K | 3.159 mPa·s | –
311.35 K | – | 3.14 mPa·s and 3.2 mPa·s and 3.1 mPa·s
311.54 K | 3.13 mPa·s | –
311.55 K | – | 3.14 mPa·s
311.65 K | – | 3.19 mPa·s and 3.32 mPa·s
311.75 K | – | 3.12 mPa·s and 3.07 mPa·s
311.78 K | 3.118 mPa·s | –
311.85 K | – | 3.17 mPa·s
311.95 K | – | 3.11 mPa·s
311.96 K | 3.099 mPa·s | –
312.05 K | – | 3.05 mPa·s
312.15 K | – | 3.1 mPa·s and 3.15 mPa·s and 3.28 mPa·s
312.33 K | 3.071 mPa·s | –
312.35 K | – | 3.1 mPa·s and 3.14 mPa·s
312.45 K | 3.065 mPa·s | 3.04 mPa·s
312.55 K | – | 3.07 mPa·s
312.65 K | – | 3.12 mPa·s and 3.26 mPa·s
312.69 K | 3.043 mPa·s | –
312.75 K | – | 3.07 mPa·s and 3.01 mPa·s
312.85 K | – | 3.1 mPa·s
312.95 K | – | 3.07 mPa·s
313.15 K | – | 3.04 mPa·s [middle of 6 runs]
313.18 K | 3.011 mPa·s and 3.01 mPa·s | –
313.24 K | 3.009 mPa·s | –
313.25 K | 3.009 mPa·s | –
313.26 K | 3.008 mPa·s and 3.011 mPa·s | –
313.34 K | 3.01 mPa·s | –
313.35 K | – | 3.01 mPa·s and 3.07 mPa·s
313.45 K | – | 2.98 mPa·s
313.55 K | 2.985 mPa·s | 3.01 mPa·s
313.65 K | – | 3.05 mPa·s and 3.21 mPa·s
313.75 K | – | 3.01 mPa·s
313.85 K | – | 3.04 mPa·s and 2.96 mPa·s
313.93 K | 2.956 mPa·s | –
313.95 K | – | 3 mPa·s
314 K | 2.951 mPa·s | –
314.15 K | – | 2.99 mPa·s and 3.02 mPa·s and 3.18 mPa·s
314.25 K | – | 2.93 mPa·s
314.3 K | 2.931 mPa·s | –
314.35 K | – | 2.96 mPa·s and 3.01 mPa·s
314.55 K | – | 2.97 mPa·s and 2.92 mPa·s
314.65 K | 2.907 mPa·s | 3 mPa·s and 3.16 mPa·s
314.67 K | 2.905 mPa·s | –
314.75 K | – | 2.97 mPa·s
314.85 K | – | 2.98 mPa·s
314.95 K | – | 2.94 mPa·s and 2.9 mPa·s
315.01 K | 2.882 mPa·s | –
315.15 K | – | 2.96 mPa·s and 2.97 mPa·s and 3.13 mPa·s
315.35 K | – | 2.91 mPa·s and 2.95 mPa·s and 2.88 mPa·s
315.41 K | 2.854 mPa·s | –
315.43 K | 2.857 mPa·s | –
315.55 K | – | 2.91 mPa·s
315.65 K | – | 2.94 mPa·s and 2.87 mPa·s and 3.1 mPa·s
315.75 K | – | 2.9 mPa·s
315.77 K | 2.833 mPa·s | –
315.85 K | – | 2.92 mPa·s
315.95 K | – | 2.89 mPa·s
316.05 K | – | 2.84 mPa·s
316.12 K | 2.81 mPa·s | –
316.13 K | 2.812 mPa·s | –
316.15 K | – | 2.88 mPa·s and 2.9 mPa·s and 3.08 mPa·s
316.35 K | – | 2.88 mPa·s and 2.89 mPa·s and 2.83 mPa·s
316.5 K | 2.785 mPa·s | –
316.55 K | – | 2.88 mPa·s
316.65 K | – | 2.87 mPa·s and 2.81 mPa·s and 3.06 mPa·s
316.75 K | – | 2.88 mPa·s
316.81 K | 2.771 mPa·s | –
316.83 K | 2.763 mPa·s | –
316.85 K | – | 2.86 mPa·s
316.95 K | – | 2.88 mPa·s
317.15 K | – | 2.86 mPa·s [middle of 4 runs]
317.2 K | 2.74 mPa·s | –
317.35 K | – | 2.83 mPa·s and 2.84 mPa·s
317.45 K | – | 2.79 mPa·s
317.46 K | 2.732 mPa·s | –
317.55 K | – | 2.82 mPa·s
317.61 K | 2.715 mPa·s | –
317.65 K | – | 2.84 mPa·s and 3.02 mPa·s
317.75 K | – | 2.84 mPa·s and 2.83 mPa·s
317.95 K | – | 2.82 mPa·s and 2.83 mPa·s
317.96 K | 2.694 mPa·s | –
318.08 K | 2.693 mPa·s | –
318.15 K | – | 2.83 mPa·s [middle of 5 runs]
318.26 K | 2.679 mPa·s | –
318.43 K | 2.672 mPa·s | –
318.45 K | 2.665 mPa·s | –
318.49 K | 2.653 mPa·s | –
318.5 K | 2.654 mPa·s | –
318.53 K | 2.655 mPa·s | –
318.57 K | 2.661 mPa·s | –
318.58 K | 2.662 mPa·s | –
318.59 K | 2.655 mPa·s | –
318.6 K | 2.659 mPa·s | –
318.61 K | 2.657 mPa·s | –
318.64 K | 2.654 mPa·s | –
318.65 K | 2.66 mPa·s | –
318.69 K | 2.655 mPa·s | –

— the NIST ThermoML archive (doi:10.1016/j.tca.2018.08.017)
